Assay results from PubChem BioAssay AID1918955 (Molecular Pharmacology Branch, DTP, NCI, 2023).

Test system: NCI/ADR-RES complex spheroid viability
Experiment: Anticancer human tumor NCI/ADR-RES cell line growth inhibition;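 further: spheroids exposed to compounds for 7 days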;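 on viability, T/C: 100% = DMSO vehicle treated spheroids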
Details: for IC50: curve of first compound; for viability, T/C: stronger effect = lower value; active means viability on the fitted dose curve at most 10% of control; inactive means the rest
In short: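 Drug combinations with the LSD1 inhibitor iadademstat tested on tumor cells co-cultured as spheroids with endothelial cells and mesenchymal stem cells. Concentrations descended in half-log increments from clinical Cmax or 10 microM.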

[1] = second compound 0.1 µM, first compound 0.0316 µM
[2] = second compound 0.1 µM, first compound 0.1 µM
[3] = second compound 0.316 µM, first compound 0.0316 µM
[4] = second compound 0.316 µM, first compound 0.1 µM
[5] = second compound 1 µM, first compound 0.0316 µM
[6] = second compound 1 µM, first compound 0.1 µM
[7] = second compound 3.16 µM, first compound 0.0316 µM
[8] = second compound 3.16 µM, first compound 0.1 µM
[9] = second compound 10 µM, first compound 0.0316 µM
[10] = second compound 10 µM, first compound 0.1 µM

CC1(C)CCC(CN2CCN(c3ccc(C(=O)NS(=O)(=O)c4ccc(NCC5CCOCC5)c([N+](=O)[O-])c4)c(Oc4cnc5[nH]ccc5c4)c3)CC2)=C(c2ccc(Cl)cc2)C1 + NC1CC1c1ccc(-c2cccc(O)c2)cc1
inactive: viability, T/C [1] 107% | viability, T/C [2] 109% | viability, T/C (second compound 0.1 µM, first compound 0.316 µM) 109% | viability, T/C (second compound 0.1 µM, first compound 1 µM) 104% | viability, T/C (second compound 0.1 µM, first compound 3.16 µM) 101% | viability, T/C (second compound 0.1 µM, first compound 10 µM) 95.6% | viability, T/C [3] 110% | viability, T/C [4] 111% | viability, T/C (second compound 0.316 µM, first compound 0.316 µM) 113% | viability, T/C (second compound 0.316 µM, first compound 1 µM) 101% | viability, T/C (second compound 0.316 µM, first compound 3.16 µM) 103% | viability, T/C (second compound 0.316 µM, first compound 10 µM) 89.7% | viability, T/C [5] 103% | viability, T/C [6] 106% | viability, T/C (second compound 1 µM, first compound 0.316 µM) 103% | viability, T/C (second compound 1 µM, first compound 1 µM) 99.8% | viability, T/C (second compound 1 µM, first compound 3.16 µM) 101% | viability, T/C (second compound 1 µM, first compound 10 µM) 99.4% | viability, T/C [7] 97.1% | viability, T/C [8] 97.8% | viability, T/C (second compound 3.16 µM, first compound 0.316 µM) 102% | viability, T/C (second compound 3.16 µM, first compound 1 µM) 108% | viability, T/C (second compound 3.16 µM, first compound 3.16 µM) 98.6% | viability, T/C (second compound 3.16 µM, first compound 10 µM) 89.8% | viability, T/C [9] 88.6% | viability, T/C [10] 98.4% | viability, T/C (second compound 10 µM, first compound 0.316 µM) 92.3% | viability, T/C (second compound 10 µM, first compound 1 µM) 94.5% | viability, T/C (second compound 10 µM, first compound 3.16 µM) 81.6% | viability, T/C (second compound 10 µM, first compound 10 µM) 75.7%
> 10000 nM: IC50 (second compound 0.1 µM) | IC50 (second compound 0.316 µM) | IC50 (second compound 1 µM) | IC50 (second compound 3.16 µM) | IC50 (second compound 10 µM)

Cn1ncnc1C1c2n[nH]c(=O)c3cc(F)cc(c23)NC1c1ccc(F)cc1 (stereo not given) + NC1CC1c1ccc(-c2cccc(O)c2)cc1
> 100 nM: IC50 (second compound 0.1 µM) | IC50 (second compound 0.316 µM) | IC50 (second compound 1 µM) | IC50 (second compound 3.16 µM) | IC50 (second compound 10 µM)
inactive: viability, T/C (second compound 0.1 µM, first compound 0.000316 µM) 101% | viability, T/C (second compound 0.1 µM, first compound 0.001 µM) 104% | viability, T/C (second compound 0.1 µM, first compound 0.00316 µM) 106% | viability, T/C (second compound 0.1 µM, first compound 0.01 µM) 103% | viability, T/C [1] 104% | viability, T/C [2] 97% | viability, T/C (second compound 0.316 µM, first compound 0.000316 µM) 104% | viability, T/C (second compound 0.316 µM, first compound 0.001 µM) 107% | viability, T/C (second compound 0.316 µM, first compound 0.00316 µM) 104% | viability, T/C (second compound 0.316 µM, first compound 0.01 µM) 110% | viability, T/C [3] 110% | viability, T/C [4] 105% | viability, T/C (second compound 1 µM, first compound 0.000316 µM) 98.2% | viability, T/C (second compound 1 µM, first compound 0.001 µM) 101% | viability, T/C (second compound 1 µM, first compound 0.00316 µM) 109% | viability, T/C (second compound 1 µM, first compound 0.01 µM) 95.8% | viability, T/C [5] 100% | viability, T/C [6] 102% | viability, T/C (second compound 3.16 µM, first compound 0.000316 µM) 105% | viability, T/C (second compound 3.16 µM, first compound 0.001 µM) 99.3% | viability, T/C (second compound 3.16 µM, first compound 0.00316 µM) 100% | viability, T/C (second compound 3.16 µM, first compound 0.01 µM) 97% | viability, T/C [7] 97.3% | viability, T/C [8] 93.8% | viability, T/C (second compound 10 µM, first compound 0.000316 µM) 97.1% | viability, T/C (second compound 10 µM, first compound 0.001 µM) 91.1% | viability, T/C (second compound 10 µM, first compound 0.00316 µM) 90.5% | viability, T/C (second compound 10 µM, first compound 0.01 µM) 96.8% | viability, T/C [9] 94.6% | viability, T/C [10] 85.3%

NS(=O)(=O)OCC1CC(n2ccc3c(NC4CCc5ccccc54)ncnc32)CC1O (stereo not given) + NC1CC1c1ccc(-c2cccc(O)c2)cc1
inactive: viability, T/C (second compound 0.1 µM, first compound 0.00949 µM) 99.2% | viability, T/C (second compound 0.1 µM, first compound 0.03 µM) 90.5% | viability, T/C (second compound 0.1 µM, first compound 0.0949 µM) 92.1% | viability, T/C (second compound 0.1 µM, first compound 0.3 µM) 78.4% | viability, T/C (second compound 0.1 µM, first compound 0.949 µM) 55% | viability, T/C (second compound 0.1 µM, first compound 3 µM) 20.6% | viability, T/C (second compound 0.316 µM, first compound 0.00949 µM) 96.7% | viability, T/C (second compound 0.316 µM, first compound 0.03 µM) 100% | viability, T/C (second compound 0.316 µM, first compound 0.0949 µM) 85.9% | viability, T/C (second compound 0.316 µM, first compound 0.3 µM) 77.5% | viability, T/C (second compound 0.316 µM, first compound 0.949 µM) 51.6% | viability, T/C (second compound 0.316 µM, first compound 3 µM) 22.2% | viability, T/C (second compound 1 µM, first compound 0.00949 µM) 98.5% | viability, T/C (second compound 1 µM, first compound 0.03 µM) 88.4% | viability, T/C (second compound 1 µM, first compound 0.0949 µM) 86.7% | viability, T/C (second compound 1 µM, first compound 0.3 µM) 78.6% | viability, T/C (second compound 1 µM, first compound 0.949 µM) 54.5% | viability, T/C (second compound 1 µM, first compound 3 µM) 23.2% | viability, T/C (second compound 3.16 µM, first compound 0.00949 µM) 96.8% | viability, T/C (second compound 3.16 µM, first compound 0.03 µM) 94.8% | viability, T/C (second compound 3.16 µM, first compound 0.0949 µM) 86.3% | viability, T/C (second compound 3.16 µM, first compound 0.3 µM) 77% | viability, T/C (second compound 3.16 µM, first compound 0.949 µM) 54.3% | viability, T/C (second compound 3.16 µM, first compound 3 µM) 22.2% | viability, T/C (second compound 10 µM, first compound 0.00949 µM) 92% | viability, T/C (second compound 10 µM, first compound 0.03 µM) 89.9% | viability, T/C (second compound 10 µM, first compound 0.0949 µM) 81% | viability, T/C (second compound 10 µM, first compound 0.3 µM) 75.1% | viability, T/C (second compound 10 µM, first compound 0.949 µM) 53.3% | viability, T/C (second compound 10 µM, first compound 3 µM) 27%
1110 nM: IC50 (second compound 3.16 µM)
1160 nM: IC50 (second compound 1 µM)
1130 nM: IC50 (second compound 0.1 µM) | IC50 (second compound 10 µM)
1030 nM: IC50 (second compound 0.316 µM)
